From ChEMBL document CHEMBL5532696, “Discovery of new tricyclic spiroindole derivatives as potent P-glycoprotein inhibitors for reversing multidrug resistance enabled by a synthetic methodology-based library” (RSC Med Chem, 2024)
pIC50: −log10 of the molar value. Calls of active or inactive are those of the source. No cut-off for these calls is given here.

Assays:
Eca-109/VCR [1] = assay: Reversal of vincristine resistance in human Eca-109/VCR cells assessed as reversal fold by measuring ratio of vincristine IC50 to vincristine IC50 in presence of test compound at 5 uM incubated for 48 hrs by CCK8 assay; assay type: functional
Eca-109/VCR [2] = assay: Antiproliferative activity against human Eca-109/VCR cells assessed as cell viability at 5 uM incubated for 48 hrs by CCK-8 assay (reference value: 100 +/- 1.8%); assay type: functional; conditions: read-out: Activity
Eca-109/VCR [3] = assay: Induction of apoptosis in human Eca-109/VCR cells assessed as late apoptotic cells at 5 uM incubated for 48 hrs by Annexin V-FITC/DAPI staining based flow cytometry analysis (reference value: 4.31 %); assay type: functional
Eca-109/VCR [4] = assay: Induction of apoptosis in human Eca-109/VCR cells assessed as necrotic cells at 5 uM incubated for 48 hrs by Annexin V-FITC/DAPI staining based flow cytometry analysis (reference value: 0.073 %); assay type: functional
Eca-109/VCR [5] = assay: Induction of apoptosis in human Eca-109/VCR cells assessed as early apoptotic cells at 5 uM incubated for 48 hrs by Annexin V-FITC/DAPI staining based flow cytometry analysis (reference value: 0.97 %); assay type: functional
Eca-109/VCR [6] = assay: Induction of apoptosis in human Eca-109/VCR cells assessed as late apoptotic cells at 5 uM incubated for 48 hrs in presence of vincristine at 50 nM by Annexin V-FITC/DAPI staining based flow cytometry analysis (reference value: 5.06 %); assay type: functional
Eca-109/VCR [7] = assay: Induction of apoptosis in human Eca-109/VCR cells assessed as viable cells at 5 uM incubated for 48 hrs by Annexin V-FITC/DAPI staining based flow cytometry analysis (reference value: 94.6 %); assay type: functional; conditions: read-out: Activity
Eca-109/VCR [8] = assay: Induction of apoptosis in human Eca-109/VCR cells assessed as necrotic cells at 5 uM incubated for 48 hrs in presence of vincristine at 50 nM by Annexin V-FITC/DAPI staining based flow cytometry analysis (reference value: 0.062 %); assay type: functional
Eca-109/VCR [9] = assay: Induction of apoptosis in human Eca-109/VCR cells assessed as viable cells at 5 uM incubated for 48 hrs in presence of vincristine at 50 nM by Annexin V-FITC/DAPI staining based flow cytometry analysis (reference value: 93.5 %); assay type: functional; conditions: read-out: Activity
Eca-109/VCR [10] = assay: Induction of apoptosis in human Eca-109/VCR cells assessed as early apoptotic cells at 5 uM incubated for 48 hrs in presence of vincristine at 50 nM by Annexin V-FITC/DAPI staining based flow cytometry analysis (reference value: 1.33 %); assay type: functional
Eca-109/VCR [11] = assay: Reversal of vincristine resistance in human Eca-109/VCR cells assessed as reduction in cell viability incubated for 48 hrs by CCK-8 assay; assay type: functional, cell-based
ECa-109 cell line = assay: Antiproliferative activity against human Eca-109 cells assessed as reduction in cell viability incubated for 48 hrs by CCK-8 assay; assay type: functional, cell-based; conditions: ECa-109, 48 h
Eca-109/VCR [12] = assay: Inhibition of colony formation in human Eca-109/VCR cells at 0 to 12 nM incubated for 48 hrs by crystal violet staining based assay; assay type: functional, cell-based; conditions: dose 0-12 nM
Eca-109/VCR [13] = assay: Antiproliferative activity against human Eca-109/VCR cells assessed as reduction in cell viability at 10 uM incubated for 48 hrs by CCK-8 assay; assay type: functional, cell-based

Row | SMILES | Ratio IC50 (Eca-109/VCR [1]) | viability at 5 µM (Eca-109/VCR [2]) [%] | also measured
1 | CCOC(=O)C1C2c3ccc(Br)cc3C(=O)C2C(c2ccccc2)C12C(=O)N(C)c1ccccc12 (stereo not given) | 16.7 | 100 | 
2 | O=C1c2cc([N+](=O)[O-])ccc2C2C1C(c1ccccc1)C1(Cc3ccccc3C1=O)C2c1ccccc1 (stereo not given) | 34.8 | 85.2 | 
3 | CCOC(=O)C1C2c3ccc([N+](=O)[O-])cc3C(=O)C2C(c2ccccc2)C12C(=O)N(C)c1ccc(OC(F)(F)F)cc12 (stereo not given) | 1.7 | 91.9 | 
4 | O=C1c2cc([N+](=O)[O-])ccc2C2C1C(c1ccccc1)C1(C(=O)c3ccccc3C1=O)C2c1ccccc1 (stereo not given) | 57.1 | 96.6 | 
5 | CCOC(=O)C1C2c3ccc([N+](=O)[O-])cc3C(=O)C2C(c2ccccc2)C12C(=O)N(C)c1ccc(OC)cc12 (stereo not given) | 16.4 | 99.4 | 
6 | CN1C(=O)C2(c3cccc(Br)c31)C(C(=O)OC(C)(C)C)C1c3ccc([N+](=O)[O-])cc3C(=O)C1C2c1ccccc1 (stereo not given) | 38.6 | 99.8 | 
7 | COc1cc2c(cc1OC)CN(CCc1ccc(NC(=O)c3cc(OC)c(OC)cc3NC(=O)c3cnc4ccccc4c3)cc1)CC2 [TARIQUIDAR] | 364.3 | 84.8 | Activity (Eca-109/VCR [3]): 3.35%; Activity (Eca-109/VCR [4]): 0.1%; Activity (Eca-109/VCR [5]): 4.28%; Activity (Eca-109/VCR [6]): 6.59%; viability at 5 µM (Eca-109/VCR [7]): 92.3%; Activity (Eca-109/VCR [8]): 0.68%; viability at 5 µM (Eca-109/VCR [9]): 79%; Activity (Eca-109/VCR [10]): 13.8%
8 | CCOC(=O)C1C2c3ccc(-n4cc(-c5ccccc5)nn4)cc3C(=O)C2C(c2ccccc2)C12C(=O)N(C)c1ccccc12 (stereo not given) | 56.1 | 98.9 | 
9 | O=C1c2cc([N+](=O)[O-])ccc2C2C1C(c1ccccc1)C1(Oc3ccccc3C1=O)C2c1ccccc1 (stereo not given) | 15.2 | 99.1 | 
10 | CN1C(=O)C2(c3cc(F)ccc31)C(C(=O)OC(C)(C)C)C1c3ccc([N+](=O)[O-])cc3C(=O)C1C2c1ccccc1 (stereo not given) | 6.6 | 101 | 
11 | CC(=O)O[C@@]12CO[C@@H]1C[C@H](O)[C@@]1(C)C(=O)[C@H](O)C3=C(C)[C@@H](OC(=O)[C@H](O)[C@@H](NC(=O)OC(C)(C)C)c4ccccc4)C[C@@](O)([C@@H](OC(=O)c4ccccc4)[C@H]21)C3(C)C [DOCETAXEL ANHYDROUS] |  |  | pIC50 (Eca-109/VCR [11]): 5.01; pIC50 (ECa-109 cell line): 6.11
12 | CCOC(=O)C1C2c3ccc([N+](=O)[O-])cc3C(=O)C2C(c2ccccc2)C12C(=O)N(C)c1ccccc12 (stereo not given) | 86.8 | 102 | 
13 | CCOC(=O)C1C2c3ccc([N+](=O)[O-])cc3C(=O)C2C(c2ccc(C)cc2)C12C(=O)N(C)c1ccccc12 (stereo not given) | 24.7 | 102 | 
14 | CCOC(=O)C1C2c3ccc([N+](=O)[O-])cc3C(=O)C2C(c2ccc(C(F)(F)F)cc2)C12C(=O)N(C)c1ccccc12 (stereo not given) | 39.2 | 97.9 | 
15 | CCOC(=O)C1C2c3ccc([N+](=O)[O-])cc3C(=O)C2C(c2ccccc2C)C12C(=O)N(C)c1ccccc12 (stereo not given) | 14.7 | 92.2 | 
16 | CCOC(=O)C1C2c3ccc([N+](=O)[O-])cc3C(=O)C2C(c2cccc(OC)c2)C12C(=O)N(C)c1ccccc12 (stereo not given) | 3 | 99.7 | 
17 | COc1ccc(CCN(C)CCCC(C#N)(c2ccc(OC)c(OC)c2)C(C)C)cc1OC (stereo not given) [VERAPAMIL] | 107.9 | 98.9 | Activity (Eca-109/VCR [3]): 3.05%; Activity (Eca-109/VCR [4]): 0.049%; Activity (Eca-109/VCR [5]): 2.86%; Activity (Eca-109/VCR [6]): 3.93%; viability at 5 µM (Eca-109/VCR [7]): 94%; Activity (Eca-109/VCR [8]): 0.32%; viability at 5 µM (Eca-109/VCR [9]): 83.6%; Activity (Eca-109/VCR [10]): 12.1%
18 | CC[C@]1(O)C[C@H]2CN(CCc3c([nH]c4ccccc34)[C@@](C(=O)OC)(c3cc4c(cc3OC)N(C=O)[C@H]3[C@@](O)(C(=O)OC)[C@H](OC(C)=O)[C@]5(CC)C=CCN6CC[C@]43[C@@H]65)C2)C1 |  |  | inhibition (Eca-109/VCR [12]): inactive
19 | CCOC(=O)C1C2c3ccc([N+](=O)[O-])cc3C(=O)C2C(c2ccco2)C12C(=O)N(C)c1ccccc12 (stereo not given) | 12.7 | 102 | 
20 | CCOC(=O)C1C2c3ccc([N+](=O)[O-])cc3C(=O)C2C(c2ccccc2)C12C(=O)N(C)c1c(C)cccc12 (stereo not given) | 38.9 | 102 | 

Row | SMILES | Ratio IC50 (Eca-109/VCR [1]) | viability at 5 µM (Eca-109/VCR [2]) [%] | also measured
21 | CN1C(=O)C2(c3cc(Cl)ccc31)C(C(=O)OC(C)(C)C)C1c3ccc([N+](=O)[O-])cc3C(=O)C1C2c1ccccc1 (stereo not given) | 388.1 | 98.2 | 
22 | CN1C(=O)C2(c3cc(Cl)ccc31)C(C(=O)NC(C)(C)C)C1c3ccc([N+](=O)[O-])cc3C(=O)C1C2c1ccccc1 (stereo not given) | 659.1 | 97.5 | 
23 | CCOC(=O)C1C2c3ccc([N+](=O)[O-])cc3C(=O)C2C(c2cccc(C)c2)C12C(=O)N(C)c1ccccc12 (stereo not given) | 56.7 | 102 | 
24 | CCOC(=O)C1C2c3ccc([N+](=O)[O-])cc3C(=O)C2C(c2ccccc2)C12C(=O)N(C)c1c(C)cc(C)cc12 (stereo not given) | 2.3 | 89.7 | 
25 | CN1C(=O)C2(c3cc(Br)ccc31)C(C(=O)OC(C)(C)C)C1c3ccc([N+](=O)[O-])cc3C(=O)C1C2c1ccccc1 (stereo not given) | 2.9 | 105 | 
26 | COC(=O)C1C(C(=O)c2ccccc2)C(c2ccccc2)C2C(=O)c3cc([N+](=O)[O-])ccc3C12 (stereo not given) | 12.3 | 75.2 | 
27 | O=C1c2c(O)ccc(O)c2C(=O)c2c(NCCNCCO)ccc(NCCNCCO)c21 [MITOXANTRONE] |  |  | pIC50 (Eca-109/VCR [11]): 5.23; pIC50 (ECa-109 cell line): 6.19
28 | CCOC(=O)C1C2c3ccc([N+](=O)[O-])cc3C(=O)C2C(c2ccc(Br)cc2)C12C(=O)N(C)c1ccccc12 (stereo not given) | 11.7 | 85.1 | 
29 | CCOC(=O)C1C2c3ccc([N+](=O)[O-])cc3C(=O)C2C(C2CC2)C12C(=O)N(C)c1ccccc12 (stereo not given) | 2.5 | 96.2 | 
30 | CN1C(=O)C2(c3ccccc31)C(C(=O)OC(C)(C)C)C1c3ccc([N+](=O)[O-])cc3C(=O)C1C2c1ccccc1 (stereo not given) | 56.1 | 103 | 
31 | CCOC(=O)C1C2c3c(cccc3[N+](=O)[O-])C(=O)C2C(c2ccccc2)C12C(=O)N(C)c1ccccc12 (stereo not given) | 10.5 | 102 | 
32 | O=C1c2cc([N+](=O)[O-])ccc2C2C1C(c1ccccc1)C([N+](=O)[O-])C2c1ccccc1 (stereo not given) | 49.9 | 78.2 | 
33 | COc1cc2c(c(OC)c1OC)-c1ccc(OC)c(=O)cc1[C@@H](NC(C)=O)CC2 [COLCHICINE] |  |  | pIC50 (Eca-109/VCR [11]): 5.44; pIC50 (ECa-109 cell line): 7.92
34 | CCOC(=O)C1C2c3ccc([N+](=O)[O-])cc3C(=O)C2C(c2ccccc2Br)C12C(=O)N(C)c1ccccc12 (stereo not given) | 1.8 | 96.4 | 
35 | CS(=O)(=O)CCNCc1ccc(-c2ccc3ncnc(Nc4ccc(OCc5cccc(F)c5)c(Cl)c4)c3c2)o1 [LAPATINIB] |  |  | pIC50 (Eca-109/VCR [11]): 5.17; pIC50 (ECa-109 cell line): 5.04
36 | COc1cccc2c1C(=O)c1c(O)c3c(c(O)c1C2=O)C[C@@](O)(C(=O)CO)C[C@@H]3O[C@H]1C[C@H](N)[C@H](O)[C@H](C)O1 [DOXORUBICIN] |  |  | pIC50 (Eca-109/VCR [11]): 4.69; pIC50 (ECa-109 cell line): 5.68
37 | O=C1c2cc([N+](=O)[O-])ccc2C2C1C(c1ccccc1)C(C(=O)c1ccccc1)C2C(F)(F)F (stereo not given) |  | 56.3 | 
38 | CCOC(=O)C1C2c3ccc([N+](=O)[O-])cc3C(=O)C2C(c2ccccc2)C12C(=O)N(C)c1cc(OC)ccc12 (stereo not given) | 53.2 | 90.5 | 
39 | CN1C(=O)C2(c3ncccc31)C(C(=O)OC(C)(C)C)C1c3ccc([N+](=O)[O-])cc3C(=O)C1C2c1ccccc1 (stereo not given) | 33.6 | 104 | 
40 | CN1C(=O)[C@@]2(c3cc(Cl)ccc31)[C@H](c1ccccc1)[C@H]1C(=O)c3cc([N+](=O)[O-])ccc3[C@H]1[C@@H]2C(=O)NC(C)(C)C | 471.3 | 96.7 | Activity (Eca-109/VCR [13]): inactive
